In US7846959B2, “Raf modulators and methods of use” (Exelixis, Inc., priority 2004, dated 2010):

Columns and labels:
B-Raf = B-Raf (Homo sapiens, UniProt P15056); test: Luciferase-coupled chemiluminescence kinase assay (ATP consumption), B-Raf; assay type: biochemical; settings: read-out: bRaf IC50
Procedure, shortened: (§1)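 Raf enzyme ([…]) pre-incubated with compound 30 minutes at room temperature in 20 mM Tris pH 7.5, 10 mM MgCl2, 0.03% TX-100, 1 mM DTT, then reacted with ATP for 3 hrs at ambient temperature. Remaining ATP quantified by luciferase-luciferin chemiluminescence, consumption held at 25-60%; IC50 reported.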

c-Raf = c-Raf (Homo sapiens, UniProt P04049); test: Luciferase-coupled chemiluminescence kinase assay (ATP consumption), c-Raf; assay type: biochemical; settings: read-out: cRaf-1 IC50
Chain of c-Raf (P04049 whole entry): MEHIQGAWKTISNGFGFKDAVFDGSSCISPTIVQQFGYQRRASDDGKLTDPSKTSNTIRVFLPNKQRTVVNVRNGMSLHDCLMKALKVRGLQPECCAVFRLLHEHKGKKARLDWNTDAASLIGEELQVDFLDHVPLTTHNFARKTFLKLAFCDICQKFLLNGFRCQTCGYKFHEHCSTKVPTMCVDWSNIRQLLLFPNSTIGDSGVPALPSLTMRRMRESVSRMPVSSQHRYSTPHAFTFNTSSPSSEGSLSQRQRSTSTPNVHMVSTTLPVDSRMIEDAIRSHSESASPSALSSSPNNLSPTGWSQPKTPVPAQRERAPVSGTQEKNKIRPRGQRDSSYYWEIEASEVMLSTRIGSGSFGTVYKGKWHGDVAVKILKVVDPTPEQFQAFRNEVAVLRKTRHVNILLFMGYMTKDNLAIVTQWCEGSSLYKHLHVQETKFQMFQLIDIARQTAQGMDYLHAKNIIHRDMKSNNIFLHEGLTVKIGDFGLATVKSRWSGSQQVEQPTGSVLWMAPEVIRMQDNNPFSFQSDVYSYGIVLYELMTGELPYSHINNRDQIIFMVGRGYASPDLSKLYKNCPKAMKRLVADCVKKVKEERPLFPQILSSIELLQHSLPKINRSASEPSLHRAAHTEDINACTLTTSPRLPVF
Procedure, shortened: as §1

Chain of B-Raf (P15056 whole entry): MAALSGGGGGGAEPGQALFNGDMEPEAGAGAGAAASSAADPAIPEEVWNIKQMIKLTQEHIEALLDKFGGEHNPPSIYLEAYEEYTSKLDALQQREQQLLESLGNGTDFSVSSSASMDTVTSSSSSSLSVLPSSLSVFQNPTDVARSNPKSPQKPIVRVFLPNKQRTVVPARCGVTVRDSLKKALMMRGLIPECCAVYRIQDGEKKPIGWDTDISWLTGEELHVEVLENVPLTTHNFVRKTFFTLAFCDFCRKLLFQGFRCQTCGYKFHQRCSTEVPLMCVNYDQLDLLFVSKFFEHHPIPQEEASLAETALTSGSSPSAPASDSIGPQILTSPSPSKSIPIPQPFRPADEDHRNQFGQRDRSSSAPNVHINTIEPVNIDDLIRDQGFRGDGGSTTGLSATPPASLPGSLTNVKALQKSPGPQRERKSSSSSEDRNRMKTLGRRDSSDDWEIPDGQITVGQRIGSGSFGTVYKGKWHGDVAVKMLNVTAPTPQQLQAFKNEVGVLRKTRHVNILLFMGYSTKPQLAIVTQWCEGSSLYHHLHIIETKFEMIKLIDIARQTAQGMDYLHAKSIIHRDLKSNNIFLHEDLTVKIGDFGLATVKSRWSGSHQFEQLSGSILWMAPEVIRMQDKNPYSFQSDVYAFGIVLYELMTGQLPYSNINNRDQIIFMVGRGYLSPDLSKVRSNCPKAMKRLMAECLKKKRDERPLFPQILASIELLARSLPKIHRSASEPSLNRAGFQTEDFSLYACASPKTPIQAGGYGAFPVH

Row | Compound | IC50 (B-Raf) | IC50 (c-Raf)
1 | COC(=O)Nc1nc2cc(C3(O)c4ccccc4C(=O)N3c3cccc(Cl)c3)ccc2[nH]1 (stereo not drawn) [Entry 135, methyl {5-[2-(3-chlorophenyl)-1-hydroxy-3-oxo-2,3-dihydro-1H-isoindol-1-yl]-1H-benzimidazol-2-yl}carbamate] | < 100 nM | < 100 nM
2 | COC(=O)Nc1nc2cc(C3(O)c4ccccc4C(=O)N3c3cccc(F)c3)ccc2[nH]1 (stereo not drawn) [Entry 136, methyl {5-[2-(3-fluorophenyl)-1-hydroxy-3-oxo-2,3-dihydro-1H-isoindol-1-yl]-1H-benzimidazol-2-yl}carbamate] | < 100 nM | < 100 nM
3 | COC(=O)Nc1nc2cc(C3(O)c4ccccc4C(=O)N3c3cccc(OC)c3)ccc2[nH]1 (stereo not drawn) [Entry 137, methyl (5-{1-hydroxy-2-[3-(methyloxy)phenyl]-3-oxo-2,3-dihydro-1H-isoindol-1-yl}-1H-benzimidazol-2-yl)carbamate] | < 100 nM | < 100 nM
4 | COC(=O)Nc1nc2cc(C3(O)c4ccccc4C(=O)N3c3ccc(Br)cc3)ccc2[nH]1 (stereo not drawn) [Entry 138, methyl {5-[2-(4-bromophenyl)-1-hydroxy-3-oxo-2,3-dihydro-1H-isoindol-1-yl]-1H-benzimidazol-2-yl}carbamate] | 100 to 1000 nM | 100 to 1000 nM
5 | COC(=O)Nc1nc2cc(C3(O)c4ccccc4C(=O)N3c3ccc(Cl)cc3)ccc2[nH]1 (stereo not drawn) [Entry 139, methyl {5-[2-(4-chlorophenyl)-1-hydroxy-3-oxo-2,3-dihydro-1H-isoindol-1-yl]-1H-benzimidazol-2-yl}carbamate] | < 100 nM | < 100 nM
6 | COC(=O)Nc1nc2cc(C3(O)c4ccccc4C(=O)N3c3ccc(F)cc3)ccc2[nH]1 (stereo not drawn) [Entry 140, methyl {5-[2-(4-fluorophenyl)-1-hydroxy-3-oxo-2,3-dihydro-1H-isoindol-1-yl]-1H-benzimidazol-2-yl}carbamate] | < 100 nM | < 100 nM
7 | COC(=O)Nc1nc2cc(C3(O)c4ccccc4C(=O)N3c3cc(C)cc(C)c3)ccc2[nH]1 (stereo not drawn) [Entry 141, methyl {5-[2-(3,5-dimethylphenyl)-1-hydroxy-3-oxo-2,3-dihydro-1H-isoindol-1-yl]-1H-benzimidazol-2-yl}carbamate] | < 100 nM | < 100 nM
8 | COC(=O)Nc1nc2cc(C3(O)c4ccccc4C(=O)N3c3ccccc3F)ccc2[nH]1 (stereo not drawn) [Entry 142, methyl {5-[2-(2-fluorophenyl)-1-hydroxy-3-oxo-2,3-dihydro-1H-isoindol-1-yl]-1H-benzimidazol-2-yl}carbamate] | < 100 nM | < 100 nM
9 | COC(=O)Nc1nc2cc(C3(O)c4ccccc4C(=O)N3c3ccccc3Cl)ccc2[nH]1 (stereo not drawn) [Entry 143, methyl {5-[2-(2-chlorophenyl)-1-hydroxy-3-oxo-2,3-dihydro-1H-isoindol-1-yl]-1H-benzimidazol-2-yl}carbamate] | < 100 nM | < 100 nM
10 | COC(=O)Nc1nc2cc(C3(O)c4ccccc4C(=O)N3c3ccccc3C)ccc2[nH]1 (stereo not drawn) [Entry 144, methyl {5-[1-hydroxy-2-(2-methylphenyl)-3-oxo-2,3-dihydro-1H-isoindol-1-yl]-1H-benzimidazol-2-yl}carbamate] | < 100 nM | < 100 nM
11 | COC(=O)Nc1nc2cc(C3(O)c4ccccc4C(=O)N3c3ccccc3OC)ccc2[nH]1 (stereo not drawn) [Entry 145, methyl (5-{1-hydroxy-2-[2-(methyloxy)phenyl]-3-oxo-2,3-dihydro-1H-isoindol-1-yl}-1H-benzimidazol-2-yl)carbamate] | < 100 nM | < 100 nM
12 | COC(=O)Nc1nc2cc(C3(O)c4ccccc4C(=O)N3c3ccc(C)cc3)ccc2[nH]1 (stereo not drawn) [Entry 146, methyl {5-[1-hydroxy-2-(4-methylphenyl)-3-oxo-2,3-dihydro-1H-isoindol-1-yl]-1H-benzimidazol-2-yl}carbamate] | 100 to 1000 nM | 100 to 1000 nM
13 | COC(=O)Nc1nc2cc(C3(O)c4ccccc4C(=O)N3c3cccc(C(F)(F)F)c3)ccc2[nH]1 (stereo not drawn) [Entry 147, methyl (5-{1-hydroxy-3-oxo-2-[3-(trifluoromethyl)phenyl]-2,3-dihydro-1H-isoindol-1-yl}-1H-benzimidazol-2-yl)carbamate] | < 100 nM | < 100 nM
14 | CC#CCOC(=O)Nc1nc2cc(C3(O)c4ccccc4C(=O)N3[C@H](C)c3ccccc3)ccc2[nH]1 (stereo partly drawn) [Entry 148, but-2-yn-1-yl (5-{1-hydroxy-3-oxo-2-[(1R)-1-phenylethyl]-2,3-dihydro-1H-isoindol-1-yl}-1H-benzimidazol-2-yl)carbamate] | < 100 nM | < 100 nM
15 | CCNC(=O)Nc1nc2cc(C3(O)c4ccccc4C(=O)N3Cc3ccccc3)ccc2[nH]1 (stereo not drawn) [Entry 149, N-ethyl-N′-{5-[1-hydroxy-3-oxo-2-(phenylmethyl)-2,3-dihydro-1H-isoindol-1-yl]-1H-benzimidazol-2-yl}urea] | < 100 nM | < 100 nM
16 | C[C@H](c1ccccc1)N1C(=O)c2ccccc2C1(O)c1ccc2[nH]c(NC(=O)OCc3ccccc3)nc2c1 (stereo partly drawn) [Entry 150, phenylmethyl (5-{1-hydroxy-3-oxo-2-[(1R)-1-phenylethyl]-2,3-dihydro-1H-isoindol-1-yl}-1H-benzimidazol-2-yl)carbamate] | < 100 nM | < 100 nM
17 | COC(=O)Nc1nc2ccc(C3(O)c4ccccc4C(=O)N3c3cc(N)cc(Cl)c3)cc2[nH]1 (stereo not drawn) [Entry 151, methyl {6-[2-(3-amino-5-chlorophenyl)-1-hydroxy-3-oxo-2,3-dihydro-1H-isoindol-1-yl]-1H-benzimidazol-2-yl}carbamate] | < 100 nM | < 100 nM
18 | O=C(Nc1nc2cc(C3(O)c4ccccc4C(=O)N3Cc3ccccc3)ccc2[nH]1)OCC1CCNCC1 (stereo not drawn) [Entry 152, piperidin-4-ylmethyl {5-[1-hydroxy-3-oxo-2-(phenylmethyl)-2,3-dihydro-1H-isoindol-1-yl]-1H-benzimidazol-2-yl}carbamate] | < 100 nM | 100 to 1000 nM
19 | COC(=O)Nc1nc2cc(C3(O)c4ccccc4C(=O)N3CC3CC3)ccc2[nH]1 (stereo not drawn) [Entry 153, methyl {5-[2-(cyclopropylmethyl)-1-hydroxy-3-oxo-2,3-dihydro-1H-isoindol-1-yl]-1H-benzimidazol-2-yl}carbamate] | 100 to 1000 nM | 100 to 1000 nM
20 | COC(=O)Nc1nc2cc(C3(O)c4ccccc4C(=O)N3CC(C)(C)C)ccc2[nH]1 (stereo not drawn) [Entry 154, methyl {5-[2-(2,2-dimethylpropyl)-1-hydroxy-3-oxo-2,3-dihydro-1H-isoindol-1-yl]-1H-benzimidazol-2-yl}carbamate] | 1000 to 10000 nM | 1000 to 10000 nM
21 | COC(=O)Nc1nc2cc(C3(O)c4ccccc4C(=O)N3c3cc(Cl)cc(Cl)c3)ccc2[nH]1 (stereo not drawn) [Entry 155, methyl {5-[2-(3,5-dichlorophenyl)-1-hydroxy-3-oxo-2,3-dihydro-1H-isoindol-1-yl]-1H-benzimidazol-2-yl}carbamate] | < 100 nM | < 100 nM
22 | COC(=O)Nc1nc2cc(C3(O)c4ccccc4C(=O)N3c3cc(F)cc(F)c3)ccc2[nH]1 (stereo not drawn) [Entry 156, methyl {5-[2-(3,5-difluorophenyl)-1-hydroxy-3-oxo-2,3-dihydro-1H-isoindol-1-yl]-1H-benzimidazol-2-yl}carbamate] | 100 to 1000 nM | 100 to 1000 nM
23 | CCNC(=O)Nc1nc2cc(C3(O)c4ccccc4C(=O)N3[C@H](C)c3ccccc3)ccc2[nH]1 (stereo partly drawn) [Entry 157, N-ethyl-N′-(5-{1-hydroxy-3-oxo-2-[(1R)-1-phenylethyl]-2,3-dihydro-1H-isoindol-1-yl}-1H-benzimidazol-2-yl)urea] | < 100 nM | < 100 nM
24 | CN(C)C(=O)Nc1nc2cc(C3(O)c4ccccc4C(=O)N3Cc3ccccc3)ccc2[nH]1 (stereo not drawn) [Entry 158, N′-{5-[1-hydroxy-3-oxo-2-(phenylmethyl)-2,3-dihydro-1H-isoindol-1-yl]-1H-benzimidazol-2-yl}-N,N-dimethylurea] | < 100 nM | < 100 nM
25 | COC(=O)Nc1nc2cc(C3(O)c4ccccc4C(=O)N3c3cccc(OCCN(C)C)c3)ccc2[nH]1 (stereo not drawn) [Entry 159, methyl {5-[2-(3-{[2-(dimethylamino)ethyl]oxy}phenyl)-1-hydroxy-3-oxo-2,3-dihydro-1H-isoindol-1-yl]-1H-benzimidazol-2-yl}carbamate] | 1000 to 10000 nM | 100 to 1000 nM
26 | CN1CCN(CCCOC(=O)Nc2nc3ccc(C4(O)c5ccccc5C(=O)N4Cc4ccccc4)cc3[nH]2)CC1 (stereo not drawn) [Entry 160, 3-(4-methylpiperazin-1-yl)propyl {6-[1-hydroxy-3-oxo-2-(phenylmethyl)-2,3-dihydro-1H-isoindol-1-yl]-1H-benzimidazol-2-yl}carbamate] | < 100 nM | < 100 nM
27 | COC(=O)Nc1nc2cc(C3(O)c4ccccc4C(=O)N3CC3CCCCC3)ccc2[nH]1 (stereo not drawn) [Entry 161, methyl {5-[2-(cyclohexylmethyl)-1-hydroxy-3-oxo-2,3-dihydro-1H-isoindol-1-yl]-1H-benzimidazol-2-yl}carbamate] | < 100 nM | < 100 nM
28 | COC(=O)Nc1nc2cc(C3(O)c4ccccc4C(=O)N3CC(C)C)ccc2[nH]1 (stereo not drawn) [Entry 162, methyl {5-[1-hydroxy-2-(2-methylpropyl)-3-oxo-2,3-dihydro-1H-isoindol-1-yl]-1H-benzimidazol-2-yl}carbamate] | 100 to 1000 nM | 100 to 1000 nM
29 | COC(=O)Nc1nc2cc(C3(O)c4ccccc4C(=O)N3Cc3nccs3)ccc2[nH]1 (stereo not drawn) [Entry 163, methyl {5-[1-hydroxy-3-oxo-2-(1,3-thiazol-2-ylmethyl)-2,3-dihydro-1H-isoindol-1-yl]-1H-benzimidazol-2-yl}carbamate] | 100 to 1000 nM | 100 to 1000 nM
30 | COC(=O)Nc1nc2cc(C3(O)c4ccccc4C(=O)N3c3ccc(F)c(F)c3)ccc2[nH]1 (stereo not drawn) [Entry 164, methyl {5-[2-(3,4-difluorophenyl)-1-hydroxy-3-oxo-2,3-dihydro-1H-isoindol-1-yl]-1H-benzimidazol-2-yl}carbamate] | < 100 nM | < 100 nM
